# Measured values published in PMC3589414, “Regulation of ASPP2 Interaction with p53 Core Domain by an Intramolecular Autoinhibitory Mechanism” (PLoS ONE, 2013).
# Values joined by “and” are separate entries in the source; they are usually repeats but may differ in a detail not shown here. Equal values may be shown once. “Also recorded” adds a separate entry of the source. Where a SMILES comes first, the peptide text is derived from it. Where no end group is shown, it is not given here. The star is where a group is joined. 5FAM = O=C1OC2(c3ccc(O)cc3Oc3cc(O)ccc32)c2ccc(C(=O)*)cc21
# T1: complex between ASPP2 Ank-SH3 and Fl-ASPP2 722–737 (Homo sapiens, UniProt Q13625)
# T1 construct: pRSET HLT ASPP2 893–1128 vector; HLT (vector-encoded tag); made in house
# T1 sequence (Q13625 893-1128): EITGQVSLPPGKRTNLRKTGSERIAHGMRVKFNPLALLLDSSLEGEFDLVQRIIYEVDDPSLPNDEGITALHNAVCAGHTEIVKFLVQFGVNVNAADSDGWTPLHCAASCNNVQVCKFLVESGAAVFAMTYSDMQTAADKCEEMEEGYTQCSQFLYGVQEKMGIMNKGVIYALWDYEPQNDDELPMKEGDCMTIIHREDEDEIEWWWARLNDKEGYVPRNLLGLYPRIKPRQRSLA
# T2: complex between ASPP2 Ank-SH3 and Fl-NFκB 303–332 (Homo sapiens, UniProt Q13625)
# T2 construct: pRSET HLT ASPP2 893–1128 vector; HLT (vector-encoded tag); made in house
# T2 sequence (Q13625 893-1128): T1 sequence (Q13625 893-1128)
# T3: ASPP2 Ank-SH3 (ASPP2 893–1128) (UniProt Q13625 893-1128)
# T3 construct: ASPP2, four ankyrin repeats and SH3 domain, residues 893-1128
# T3 sequence (looked up): T1 sequence (Q13625 893-1128)
# T4: Fl-ASPP2 1089–1097 (fluorescein-labelled ASPP2 n-src loop peptide)
# T4 construct: ASPP2 n-src loop of the SH3 domain, residues 1089-1097; also called Fl-ASPP2 n-src peptide; Fl-n-src peptide; source: synthetic peptide
# T4 peptide: fluorescein-REDEDEIEW
# B1: Fl-ASPP2 722–737 (fluorescein-labelled ASPP2 Pro peptide) (peptide)
# peptide: fluorescein-WRKKLSNAPRPLKKRSS
# notes: Trp added at the N terminus of the peptide for UV spectroscopy; also called Fl-ASPP2 Pro peptide; source: synthetic peptide
# B2: ASPP2 722–737 (ASPP2 Pro peptide, non-labelled) (peptide)
# peptide: WRKKLSNAPRPLKKRSS
# notes: Trp added at the N terminus of the peptide for UV spectroscopy; A natural stretch with one added N-terminal Trp; source: synthetic peptide
# B3: Fl-NFκB 303–332 (fluorescein-labelled NFκB p65 peptide) (peptide)
# peptide: fluorescein-KRTYETFKSIMKKSPFSGPTDPRPPPRRIA
# notes: also called NFκB peptide; source: synthetic peptide
# Assays:
# p53 R249S mutant = conditions: back towards wild-type-like structure; cited from earlier work
# Excerpt: (§1) The TP53 gene encoding p53 is frequently mutated in human cancers and most of these reported mutations are in the DNA-binding core domain of the protein (p53CD), [25]. Some of these mutations lower the thermodynamic stability of p53, resulting in its unfolding and inactivation.
# p53CD mutant I195T = conditions: to levels similar to wild-type; cited from earlier work
# Excerpt: as §1
# p53CD = conditions: 37°C, concentration-dependent; cited from earlier work
# Excerpt: as §1
# HCT116 p53−/− cells = conditions: cited from earlier work
# Excerpt: (§2) It is possible that the peptide inhibits the intramolecular interaction in ASPP2 and thus activates the p53-ASPP2 interaction that ...
# [1] = test system: R175H and R273H mutant p53; conditions: cited from earlier work
# Excerpt: as §2
# [2] = test system: colorectal carcinoma HCT116 cells; conditions: cited from earlier work
# Excerpt: as §2
# [3] = test system: complex between p53CD and Fl-ASPP2 1089–1097; experiment: Fluorescence anisotropy competition: competitor added to complex of Fl-ASPP2 1089–1097 and p53CD; type: binding; conditions: 200 µl of 130 µM competitor added to 87 nM Fl-ASPP2 1089–1097 and 6.5 µM p53CD, 50 mM Hepes pH 7.0, IS = 20 mM, 10 mM βME, 10°C
# Protocol: (§3) In the competition experiments, the conditions were as follows: 100–200 µl of competitor peptide or protein were added to a 1200 µl mixture of 83 nM Fl-ASPP2 722–737 and 8.3 µM ASPP2 Ank-SH3 at 20 mM Hepes pH 7.0, IS = 50 mM, 5 mM βME; 200 µl of 130 µM of competitor peptide were added to a 1150-µl mixture of 87 nM Fl peptide ASPP2 1089–1097 and 6.5 µM p53CD at 50 mM Hepes pH 7.0, IS = 20 mM, 10 mM βME; 200 µl of 130 µM of Bcl-2 103–120 or Bcl-2 7–24 were added to a 1100 µl mixture of 87 nM Fl-NFκB 303–332 and 2.25 µM ASPP2 Ank-SH3 or to 1150 µl mixture of 87 nM Fl-ASPP2 722–737 and 4.5 µM ASPP2 Ank-SH3 at 20 mM Hepes pH 7.0, IS = 50 mM, 5 mM βME. The K d of the competitor was calculated as described.
# [4] = target: T1, complex between ASPP2 Ank-SH3 and Fl-ASPP2 722–737; experiment: Fluorescence anisotropy competition: competitor added to complex of Fl-ASPP2 722–737 and ASPP2 Ank-SH3; type: binding; conditions: 83–87 nM Fl-ASPP2 722–737, 8.3 µM (p53CD) or 4.5 µM (Bcl-2 peptides) ASPP2 Ank-SH3, 20 mM Hepes pH 7.0, IS = 50 mM, 5 mM βME, 10°C
# Protocol: as §3
# [5] = target: T2, complex between ASPP2 Ank-SH3 and Fl-NFκB 303–332; experiment: Fluorescence anisotropy competition: competitor added to complex of Fl-NFκB 303–332 and ASPP2 Ank-SH3; type: binding; conditions: Bcl-2 peptides: 200 µl of 130 µM added to 87 nM Fl-NFκB 303–332 and 2.25 µM ASPP2 Ank-SH3, 20 mM Hepes pH 7.0, IS = 50 mM; p53CD: IS = 150 mM; 10°C
# Protocol: as §3
# [6] = test system: complex between Fl-ASPP2 1089–1097 and ASPP2 722–737; experiment: Fluorescence anisotropy competition: p53CD added to complex of Fl-ASPP2 1089–1097 and ASPP2 722–737; type: binding; conditions: Figure 2A
# Protocol: A major p53-interacting site in ASPP2 SH3 is situated in the n-src loop between residues 1089–1097 [14], [27] (Figure 1A, B). […] The ASPP2 Pro peptide (residues 722–737) was titrated into the fluorescein-labeled (Fl) ASPP2 n-src peptide (residues 1089–1097). […] In the opposite experiment p53CD was added to a pre-formed complex between the ASPP2 Pro peptide and the Fl-ASPP2 n-src peptide (Figure 2A).
# [7] = target: T1, complex between ASPP2 Ank-SH3 and Fl-ASPP2 722–737; conditions: previously shown; cited from earlier work
# Excerpt: Fl-NFκB 303–332 was previously shown to bind ASPP2 Ank-SH3 and compete with the Pro peptide ASPP2 722–737 [13]. We thus assumed that NFκB 303–332 also binds the SH3 domain of ASPP2, similar to p53CD and the ASPP2 Pro peptide. […] The Bcl-2 BH4 peptide (residues 7–24) binds the RT loop of ASPP2 in different residues than the p53 loop3 [14], [22]. […] However, p53CD displaced Fl-NFκB 303–332 from its complex with ASPP2 Ank-SH3. ...
# [8] = target: Bcl-2 peptide 7-24 (Homo sapiens) (UniProt P10415); experiment: fluorescence anisotropy; conditions: cited from earlier work
# [9] = target: T5, ASPP2 n-src peptide (residues 1089–1097) (Homo sapiens, UniProt Q13625); experiment: Fluorescence anisotropy titration into Fl-ASPP2 n-src peptide; type: binding; conditions: 20 mM Hepes pH 7.0, IS 50 mM, 5 mM βME, data not shown
# T5 construct: fluorescein-labeled (Fl) ASPP2 n-src peptide (residues 1089–1097); made in house; host or cells: chemical peptide synthesis
# [10] = target: T3, ASPP2 Ank-SH3 (ASPP2 893–1128); experiment: fluorescence polarisation; fluorescence anisotropy; ASPP2 Ank-SH3 titrated into 100 nM fluorescein-labelled peptide; 10°C; 20 mM Hepes pH 7.0, 5 mM βME; ionic strength 50 mM (told for the competitions done on these complexes); 1:1 binding model; conditions: both partners purified
# [11] = target: T4, Fl-ASPP2 1089–1097 …; experiment: fluorescence polarisation; fluorescence anisotropy; p53CD or ASPP2 722–737 titrated into 100 nM Fl-ASPP2 1089–1097 in the cuvette; 10°C; 50 mM Hepes pH 7.0, 10 mM NaCl, 10 mM βME; 1:1 binding model; conditions: both partners purified
# [12] = target: T3, ASPP2 Ank-SH3 (ASPP2 893–1128); experiment: fluorescence polarisation; fluorescence anisotropy; ASPP2 Ank-SH3 titrated into Fl-NFκB 303–332; 10°C; 20 mM Hepes pH 7.0, 5 mM βME; ionic strength 150 mM (told for the competition done on this complex); conditions: both partners purified
molecule,measurement,setting,value
"REDEDEIEW [ASPP2 1089–1097, nine-residue peptide derived from ASPP2 n-src loop (residues 1089–1097), also termed CDB3]",Structural effects of mutation in p53 R249S,p53 R249S mutant,rescued the structural effects of mutation
same,Specific DNA binding activity of p53CD mutant I195T,p53CD mutant I195T,restored the specific DNA binding activity
same,Unfolding of p53CD,p53CD,slowed down the unfolding
same,Sensitization to apoptosis induced by γ-irradiation,HCT116 p53−/− cells,not
same,Conformation of R175H and R273H mutant p53 in cells,[1],restored the wild-type conformation
same,Sensitization to apoptosis induced by γ-irradiation,[2],sensitize
NFκB 21–50: unlabeled peptide derived from the ASPP2-binding sites in NFκB (VEIIEQPKQRGMRFRYKCEGRSAGSIPGER),Displacement of p53CD from its complex with Fl-ASPP2 n-src peptide 1089–1097 by non-labeled peptide,[3],did not compete
RRYRRDFAEMSSQLHLTP [Bcl-2 103–120],Displacement of p53CD from its complex with Fl-ASPP2 n-src peptide 1089–1097 by non-labeled peptide,[3],did not compete
same,Displacement of Fl-ASPP2 722–737 from its complex with ASPP2 Ank-SH3,[4],did not displace; also recorded: did not compete
same,Displacement of Fl-NFκB 303–332 from its complex with ASPP2 Ank-SH3,[5],did not displace; also recorded: did not compete
"YDNREIVMKYIHYKLSQR [Bcl-2 7–24, Bcl2 BH4 derived peptide, residues 7–24]",Displacement of p53CD from its complex with Fl-ASPP2 n-src peptide 1089–1097 by non-labeled peptide,[3],did not compete
same,Displacement of Fl-ASPP2 722–737 from its complex with ASPP2 Ank-SH3,[4],did not displace; also recorded: did not compete
same,Displacement of Fl-NFκB 303–332 from its complex with ASPP2 Ank-SH3,[5],did not displace; also recorded: did not compete
"p53CD: recombinant p53 DNA-binding core domain, residues 94–312, expressed in E. coli",Displacement of Fl-ASPP2 722–737 from its complex with ASPP2 Ank-SH3,[4],displaced
same,Displacement of Fl-NFκB 303–332 from its complex with ASPP2 Ank-SH3,[5],displaced
same,Anisotropy change on adding p53CD to pre-formed complex of ASPP2 Pro peptide and Fl-ASPP2 n-src peptide,[6],the final anisotropy level increased
CC[C@H](C)[C@H](NC(=O)[C@H](CCCNC(=N)N)NC(=O)[C@H](CCCNC(=N)N)NC(=O)[C@@H]1CCCN1C(=O)[C@@H]1CCCN1C(=O)[C@@H]1CCCN1C(=O)[C@H](CCCNC(=N)N)NC(=O)[C@@H]1CCCN1C(=O)[C@H](CC(=O)O)NC(=O)[C@@H](NC(=O)[C@@H]1CCCN1C(=O)CNC(=O)[C@H](CO)NC(=O)[C@H](Cc1ccccc1)NC(=O)[C@@H]1CCCN1C(=O)[C@H](CO)NC(=O)[C@H](CCCCN)NC(=O)[C@H](CCCCN)NC(=O)[C@H](CCSC)NC(=O)[C@@H](NC(=O)[C@H](CO)NC(=O)[C@H](CCCCN)NC(=O)[C@H](Cc1ccccc1)NC(=O)[C@@H](NC(=O)[C@H](CCC(=O)O)NC(=O)[C@H](Cc1ccc(O)cc1)NC(=O)[C@@H](NC(=O)[C@H](CCCNC(=N)N)NC(=O)[C@H](CCCCN)NC(=O)c1ccc2c(c1)C(=O)OC21c2ccc(O)cc2Oc2cc(O)ccc21)[C@@H](C)O)[C@@H](C)O)[C@@H](C)CC)[C@@H](C)O)C(=O)N[C@@H](C)C(N)=O [Fl-NFκB 303–332] (5FAM-KRTYETFKSIMKKSPFSGPTDPRPPPRRIA-NH2),Competition of NFκB 303–332 with Pro peptide ASPP2 722–737 for ASPP2 Ank-SH3,[7],compete
ASPP2 Ank-SH3 Ank-SH3 (from UniProt Q13625),Kd,[8],4700 nM
KRTYETFKSIMKKSPFSGPTDPRPPPRRIA [NFκB 303–332],Binding of NFκB 303–332 to the n-src loop peptide,[9],did not bind
same,Displacement of p53CD from its complex with Fl-ASPP2 n-src peptide 1089–1097 by non-labeled peptide,[3],did not compete
same,Competition of NFκB 303–332 with Pro peptide ASPP2 722–737 for ASPP2 Ank-SH3,[7],competed
B1,Kd,[10],680 nM and 820 nM
B2,Kd,[11],500 ± 30 nM
B3,Kd,[12],470 ± 20 nM
same,Kd,[10],130 ± 10 nM
